# From patent US20220220041A1, “USE OF UREA AS AN ANTIMICROBIAL ADDITIVE IN AN AQUEOUS SUSPENSION” (Omya International AG, priority 2019, published 2022)
# Key:
# Format in all cases: cell-based
# [1] = tested on: non-sterile calcium carbonate slurry (H60), environmental bacteria; experiment: Example 2 preservation efficacy: H60 slurry with 61 wt.-% urea solution, non-sterile H60 inoculum, TVC; conditions: 30° C.
# Experimental: (§1) All quoted bacterial counts (Total viable counts (TVC) values), unless otherwise indicated, are given in cfu/ml and determined after at least 2 days following plate-out and incubation at 30° C. and in accordance with the counting method described in “Bestimmung von aerobe mesophilen Keimen”, Schweizerisches Lebensmittelbuch, chapter 56, section 7.01, edition of 1985, revised version of 1988.
# (§2) Unless otherwise stated, per tryptic soy agar plate (TSA, prepared using BD 236950) 0.1 ml of a solution or suspension is plated. Counts from 10000 cfu/ml to 99999 cfu/ml are reported as >1E4 cfu/ml. Counts from 100000 cfu/ml to 999999 cfu/ml are reported as >1E5 cfu/ml. Counts above 1000000 cfu/ml are reported as >1E6 cfu/ml.
# (§3) Non-sterile slurries (H60 or H90) contain contamination with environmental bacteria at a TVC>100000 cfu/ml. The contamination originates spontaneously and a bacterial burden of at least>100000 cfu/ml is confirmed prior use as inoculum by TVC. The following bacterial species are known to occur, as identified by 16S RNA sequencing or MALDI-TOF-MS analysis: Rhizobium radiobacter, Brevundimonas intermedia, Brevundimonas diminiuta, Sphingomonas sp., Pseudomonas stutzeri, Pseudomonas sp., Comomonas aquatic.
# (§4) 50 g sterile slurry H60 with a solid content of 76.5 wt.-%, based on the total weight of the H60 slurry is supplemented with different amounts of 61 wt.-% urea solution or water. The samples are then inoculated with 1 ml non-sterile calcium carbonate slurry (H60), 1 ml non-sterile calcium carbonate slurry (H90), 0.02 ml overnight culture of Escherichia coli (DSMZ 46295) and 0.02 ml overnight culture of Pseudomonas putida. The control samples are not inoculated. Samples are incubated at 30° C. and the TVC and pH are determined at various time points (0 day, 1 day, 4, days, 8 days, 9 days and/or 13 days).
# [2] = tested on: non-sterile calcium carbonate slurry (H60), environmental bacteria; experiment: Example 3 preservation efficacy: H60 slurry with industrial grade urea solution, non-sterile H60 inoculum, TVC; conditions: industrial grade urea 5.5%, calcium carbonate 69%, water 25.5% w/w, 30° C.
# Experimental: as §1, §2, §3
# (§5) 50 g sterile calcium carbonate slurry (H60) with a solid content of 77.3 wt.-%, based on the total weight of the H60 slurry is supplemented with industrial grade 50% (w/w) urea solution (Yara Canda Inc.) or water to different final concentrations. The industrial grade contained natural resident (i.e. bacteria in a non-growing state) bacteria. The bacterial of the industrial urea burden is 5 cfu/3 ml as determined by TVC. The species are identified by characterizing the grown colonies from the TVC by 16 S RNA sequencing, known to the person skilled in the art.
# (§6) The samples are further artificially inoculated with 1 ml non-sterile calcium carbonate slurry (H60), 1 ml non-sterile calcium carbonate slurry (H90), 0.02 ml overnight culture of Escherichia coli (DSMZ 46295) and 0.02 ml overnight culture Pseudomonas putida. The control sample are not inoculated. […]
# [3] = tested on: natural resident bacteria of industrial grade urea, not inoculated; experiment: Example 3 preservation efficacy: H60 slurry with industrial grade urea solution, not inoculated, TVC; conditions: industrial grade urea 5.5%, calcium carbonate 69%, water 25.5% w/w, inoculum none, 30° C.
# Experimental: as §1, §2, §5
# The species identified are Sporosarcina koreensis, (Gram positive, urease positive, spore forming), Paenibacillus sp., (Gram positive, urease positive, spore forming) and Halobacillus trueperi (Gram positive, urease negative, spore forming).
# as §6
# [4] = tested on: Escherichia coli (DSMZ 46295); experiment: Example 2 preservation efficacy: H60 slurry with 61 wt.-% urea solution, E. coli inoculum, TVC
# Experimental: as §1, §2
# For the preparation of inoculum with a single bacterial species (for example Escherichia coli (DSMZ 46295) or Pseudomonas putida), bacteria are spread onto Tryptic soy broth agar (BD, 236950) by dilution streaking followed by incubation at 30° C. for at least 24 h until colonies appear. Overnight cultures are generated by inoculation of 3 ml Tryptic soy broth (Fluka 22092) with a single colony followed incubation with agitation at […] at 30° C. for 24 h.
# as §4
# [5] = tested on: non-sterile calcium carbonate slurry (H90), environmental bacteria; experiment: Example 3 preservation efficacy: H60 slurry with industrial grade urea solution, non-sterile H90 inoculum, TVC; conditions: industrial grade urea 5.5%, calcium carbonate 69%, water 25.5% w/w, 30° C.
# Experimental: as §1, §2, §3, §5, §6
# [6] = tested on: total viable bacteria, not inoculated; experiment: Example 2 preservation efficacy: H60 slurry with 61 wt.-% urea solution, control samples not inoculated, TVC; conditions: inoculum none, 30° C.
# Experimental: as §1, §2, §4
# [7] = Table 2, urea 2.75%, calcium carbonate 73.1%, water 24.15% w/w
# [8] = Table 2, urea 7.6%, calcium carbonate 67.1%, water 25.3% w/w
# [9] = Table 3, urea 0.65%, calcium carbonate 75.7%, water 23.65% w/w
# [10] = Table 3, urea 2.75%, calcium carbonate 73.1%, water 24.15% w/w
# [11] = Table 2, urea 2.75%, calcium carbonate 73.1%, water 24.15% w/w, inoculum E. coli, 30° C.
# [12] = Table 2, urea 7.6%, calcium carbonate 67.1%, water 25.3% w/w, inoculum E. coli, 30° C.
# [13] = Table 3, urea 0.65%, calcium carbonate 75.7%, water 23.65% w/w, inoculum E. coli, 30° C.
# [14] = Table 3, urea 1.28%, calcium carbonate 74.9%, water 23.82% w/w, inoculum E. coli, 30° C.
# [15] = Table 3, urea 2.75%, calcium carbonate 73.1%, water 24.15% w/w, inoculum E. coli, 30° C.
# [16] = Table 3, urea 1.28%, calcium carbonate 74.9%, water 23.82% w/w
smiles,measurement,setting,value
NC(N)=O [urea],TVC cfu/ml Day 4,[1]; [7],<100 cfu/ml
same,TVC cfu/ml Day 8,[1]; [7],<100 cfu/ml
same,TVC cfu/ml Day 13,[1]; [7],<100 cfu/ml
same,TVC cfu/ml Day 1,[1]; [8],<100 cfu/ml
same,TVC cfu/ml Day 4,[1]; [8],<100 cfu/ml
same,TVC cfu/ml Day 8,[1]; [8],<100 cfu/ml
same,TVC cfu/ml Day 13,[1]; [8],<100 cfu/ml
same,TVC cfu/ml Day 1,[1]; [9],>1E5 cfu/ml
same,TVC cfu/ml Day 4,[1]; [9],>1E5 cfu/ml
same,TVC cfu/ml Day 4,[1]; [10],100 cfu/ml
same,TVC cfu/ml Day 9,[1]; [10],<100 cfu/ml
same,TVC cfu/ml Day 4,[2],<100 cfu/ml
same,TVC cfu/ml Day 8,[2],<100 cfu/ml
same,TVC cfu/ml Day 11,[2],<100 cfu/ml
same,TVC cfu/ml Day 13,[2],<100 cfu/ml
same,TVC cfu/ml Day 4,[3],<100 cfu/ml
same,TVC cfu/ml Day 8,[3],100 cfu/ml
same,TVC cfu/ml Day 11,[3],<100 cfu/ml
same,TVC cfu/ml Day 13,[3],<100 cfu/ml
same,TVC cfu/ml Day 1,[3]; detection limit 100 cfu/ml,<100 cfu/ml
same,TVC cfu/ml Day 1,[4]; [11],<100 cfu/ml
same,TVC cfu/ml Day 4,[4]; [11],<100 cfu/ml
same,TVC cfu/ml Day 8,[4]; [11],500 cfu/ml
same,TVC cfu/ml Day 13,[4]; [11],<100 cfu/ml
same,TVC cfu/ml Day 1,[4]; [12],<100 cfu/ml
same,TVC cfu/ml Day 4,[4]; [12],<100 cfu/ml
same,TVC cfu/ml Day 8,[4]; [12],<100 cfu/ml
same,TVC cfu/ml Day 13,[4]; [12],100 cfu/ml
same,TVC cfu/ml Day 1,[4]; [13],>1E5 cfu/ml
same,TVC cfu/ml Day 4,[4]; [13],>1E5 cfu/ml
same,TVC cfu/ml Day 1,[4]; [14],<100 cfu/ml
same,TVC cfu/ml Day 4,[4]; [14],<100 cfu/ml
same,TVC cfu/ml Day 1,[4]; [15],<100 cfu/ml
same,TVC cfu/ml Day 4,[4]; [15],<100 cfu/ml
same,TVC cfu/ml Day 9,[4]; [15],<100 cfu/ml
same,"preservation of calcium carbonate slurries from bacterial growth, duration","[4]; high urea concentrations, summary of tables 2 and 3, all inocula",at least 13 days
same,TVC cfu/ml Day 1,[5],>1E4 cfu/ml
same,TVC cfu/ml Day 4,[5],300 cfu/ml
same,TVC cfu/ml Day 8,[5],<100 cfu/ml
same,TVC cfu/ml Day 11,[5],<100 cfu/ml
same,TVC cfu/ml Day 13,[5],<100 cfu/ml
same,TVC cfu/ml Day 4,[6]; [7],<100 cfu/ml
same,TVC cfu/ml Day 8,[6]; [7],<100 cfu/ml
same,TVC cfu/ml Day 13,[6]; [7],<100 cfu/ml
same,TVC cfu/ml Day 1,"[6]; Table 2, urea 2.75%, calcium carbonate 73.1%, water 24.15% w/w, detection limit 100 cfu/ml",<100 cfu/ml
same,TVC cfu/ml Day 1,[6]; [8],<100 cfu/ml
same,TVC cfu/ml Day 4,[6]; [8],<100 cfu/ml
same,TVC cfu/ml Day 8,[6]; [8],<100 cfu/ml
same,TVC cfu/ml Day 13,[6]; [8],<100 cfu/ml
same,TVC cfu/ml Day 4,[6]; [9],<100 cfu/ml
same,TVC cfu/ml Day 1,"[6]; Table 3, urea 0.65%, calcium carbonate 75.7%, water 23.65% w/w, detection limit 100 cfu/ml",<100 cfu/ml
same,TVC cfu/ml Day 1,[6]; [16],<100 cfu/ml
same,TVC cfu/ml Day 4,[6]; [16],<100 cfu/ml
same,TVC cfu/ml Day 1,[6]; [10],<100 cfu/ml
same,TVC cfu/ml Day 4,[6]; [10],<100 cfu/ml
same,TVC cfu/ml Day 9,[6]; [10],<100 cfu/ml
